pIC50: −log10 of the molar value. Like-named read-outs stand apart in the source and are kept apart here.
Biological target: T1, ACCase (chloroplastic acetyl coenzyme A carboxylase)
T1 construct: plastid and cytosolic forms not separated; S biotype has Arg1789, Met2065, Gly2067, Val2077
Test: NaH14CO3 incorporation into acid-stable product (malonyl-CoA)
Format: biochemical, Cynosurus echinatus
Conditions: 5 mM acetyl-CoA, 1.5 mM ATP, 5 mM MgCl2, 15 mM bicarbonate, pH 8.3, 34°C, read-out: I50
Text: NaH14CO3 incorporation into acid-stable product (malonyl-CoA) on ACCase (chloroplastic acetyl coenzyme A carboxylase)

Row | Compound | pIC50 (R biotype, stated gain) | pIC50 (S biotype)
1 | CC(Oc1ccc(Oc2nc3ccc(Cl)cc3o2)cc1)C(=O)O (racemic) [Fenoxaprop] | 4.62 | 5.80
2 | C[C@@H](Oc1ccc(Oc2ccc(C#N)cc2F)cc1)C(=O)O [Cihalofop] | 4.15 | 4.99
3 | CCCC(=NOCC)C1=C(O)CC(C2CCCSC2)CC1=O (stereo not drawn) [Cycloxidim] | 5.10 | 5.60
4 | CC(Oc1ccc(Oc2ccc(Cl)cc2Cl)cc1)C(=O)O (stereo not drawn) [Diclofop] | 4.20 | 5.34
5 | CCc1cc(C)cc(CC)c1-c1c(OC(=O)C(C)(C)C)n2n(c1=O)CCOCC2 [Pinoxaden] | 5.04 | 6.41
6 | CCCC(=NOCC)C1=C(O)CC(CC(C)SCC)CC1=O (stereo not drawn) [Setoxidim] | 2.46 | 3.10

Source: publication PMC4826872, “Underlying Resistance Mechanisms in the Cynosurus echinatus Biotype to Acetyl CoA Carboxylase-Inhibiting Herbicides” (Frontiers in Plant Science, 2016)
